We go through 9 compounds from US7776848B2, “Spirocyclic cyclohexane compounds” (Gruenenthal GmbH, priority 2004, dated 2010).

The target of experiment [1] is T1, 5HT uptake (serotonin reuptake), synaptosomes from hypothalamus of male rat brains (Rattus norvegicus, UniProt P31652).
T1 construct: synaptosomes are freshly isolated from areas of rat brain; from tissue; host or cells: synaptosomes (P2 fraction) from hypothalamus of male rat brains
Briefly: Serotonin reuptake inhibition (5HT uptake inhibition) in rat brain synaptosomes. It counts as biochemical. As for the experimental part: Biological Testing a) Studies of Serotonin Reuptake Inhibition (5HT Uptake Inhibition)
In order to be able to carry out these in vitro studies, synaptosomes are freshly isolated from areas of rat brain. A so-called “P2” fraction is used in each case, which is prepared according to the procedure of Gray and Whittaker (E. G. Gray and V. P. Whittaker (1962) J. Anat. 76, 79-88). For 5HT uptake, these vesicular particles are isolated from the hypothalamus of male rat brains. A detailed description of the method can be found in the literature (M. Ch. Frink, H.-H. Hennies, W. Englberger, M. Haurand and B. Wilffert (1996) Arzneim.-Forsch./Drug Res. 46 (III), 11, 1029-1036).

For another experiment, the target named is T2, human μ-opiate receptor (Homo sapiens, UniProt P35372).
T2 construct: purchased NEN, Zaventem, Belgium RB-HOM; host or cells: CHO-K1 cells (membrane preparation)
T2 sequence (P35372 whole entry): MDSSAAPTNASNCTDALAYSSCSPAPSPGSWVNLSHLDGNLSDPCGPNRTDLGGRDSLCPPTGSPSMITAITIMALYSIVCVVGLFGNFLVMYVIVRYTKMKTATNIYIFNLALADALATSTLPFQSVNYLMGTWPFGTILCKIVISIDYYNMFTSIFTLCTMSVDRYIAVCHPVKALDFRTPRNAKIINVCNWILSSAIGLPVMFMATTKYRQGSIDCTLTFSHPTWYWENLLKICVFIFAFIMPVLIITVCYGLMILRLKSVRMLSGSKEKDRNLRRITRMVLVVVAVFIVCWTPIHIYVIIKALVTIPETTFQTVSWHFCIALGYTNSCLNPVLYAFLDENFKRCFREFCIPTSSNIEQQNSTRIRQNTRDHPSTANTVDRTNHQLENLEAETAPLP
Briefly: Measurement of μ binding ([3H]-naloxone displacement, SPA, CHO-K1 membrane preparation). To be noted: 1.5 h; % inhibition of specific [3H]-naloxone binding at 1 μM test substance. On the procedure:
c) Measurement of μ Binding
The receptor affinity for the human μ-opiate receptor was determined in a homogeneous batch on microtitre plates. To that end, serial dilutions of the substituted spirocyclic cyclohexane derivative to be tested were incubated for 90 minutes at room temperature with a receptor membrane preparation (15-40 μg of protein per 250 μl of incubation batch) of CHO-K1 cells, which express the human μ-opiate receptor (RB-HOM receptor membrane preparation from NEN, Zaventem, Belgium), in the presence of 1 nmol/l of the radioactive ligand [^3H]-naloxone (NET719, NEN, Zaventem, Belgium) and 1 mg of WGA-SPA beads (wheatgerm agglutinin SPA beads from Amersham/Pharmacia, Freiburg, Germany) in a total volume of 250 μl. The incubation buffer used was 50 mmol/l of Tris-HCl supplemented with 0.05 wt. % sodium azide and with 0.06 wt. % bovine serum albumin. In order to determine non-specific binding, 25 μmol/l of naloxone were additionally added. When the ninety-minute incubation time was complete, the microtitre plates were centrifuged off for 20 minutes at 1000 g and the radioactivity was measured in a β-counter (Microbeta-Trilux, PerkinElmer Wallac, Freiburg, Germany). The percentage displacement of the radioactive ligand from its binding to the human μ-opiate receptor at a concentration of the test substances of 1 μmol/l was determined and stated as the percentage inhibition (% inhibition) of specific binding. In some cases, on the basis of the percentage displacement by different concentrations of the compounds of formula I to be tested, IC50 inhibitory concentrations, which effect 50% displacement of the radioactive ligand, were calculated. Ki values for the test substances were obtained by conversion by means of the Cheng-Prusoff equation.

In experiment [2] the target is T3, NA uptake (noradrenaline reuptake), synaptosomes from hypothalamus of male rat brains (Rattus norvegicus, UniProt Q63380).
T3 construct: synaptosomes are freshly isolated from areas of rat brain; from tissue; host or cells: synaptosomes (P2 fraction) from hypothalamus of male rat brains
T3 sequence (Q63380 1-617): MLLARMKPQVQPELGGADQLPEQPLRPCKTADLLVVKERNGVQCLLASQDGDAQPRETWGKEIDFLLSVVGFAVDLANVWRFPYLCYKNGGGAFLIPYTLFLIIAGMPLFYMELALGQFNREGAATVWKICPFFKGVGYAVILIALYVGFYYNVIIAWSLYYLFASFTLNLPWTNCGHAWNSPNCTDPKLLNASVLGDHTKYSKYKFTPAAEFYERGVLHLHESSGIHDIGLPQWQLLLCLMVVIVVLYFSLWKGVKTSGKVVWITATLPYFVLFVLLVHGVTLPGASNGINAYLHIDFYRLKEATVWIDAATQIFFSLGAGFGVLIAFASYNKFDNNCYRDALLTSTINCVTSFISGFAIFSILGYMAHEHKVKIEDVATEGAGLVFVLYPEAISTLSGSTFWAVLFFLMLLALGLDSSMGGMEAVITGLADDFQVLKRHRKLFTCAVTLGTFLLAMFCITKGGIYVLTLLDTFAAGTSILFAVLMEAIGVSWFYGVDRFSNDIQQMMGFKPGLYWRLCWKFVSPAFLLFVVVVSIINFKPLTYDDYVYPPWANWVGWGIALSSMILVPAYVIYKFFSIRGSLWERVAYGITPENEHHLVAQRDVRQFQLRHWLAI
Briefly: Noradrenaline reuptake inhibition (NA uptake inhibition) in rat brain synaptosomes. It counts as biochemical. As for the experimental part: b) Studies of Noradrenaline Reuptake Inhibition (NA Uptake Inhibition)
In order to be able to carry out these in vitro studies, synaptosomes are freshly isolated from areas of rat brain. A so-called “P2” fraction is used in each case, which is prepared according to the procedure of Gray and Whittaker (E. G. Gray and V. P. Whittaker (1962) J. Anat. 76, 79-88). For NA uptake, these vesicular particles are isolated from the hypothalamus of male rat brains. A detailed description of the method can be found in the literature (M. Ch. Frink, H.-H. Hennies, W. Englberger, M. Haurand and B. Wilffert (1996) Arzneim.-Forsch./Drug Res. 46 (III), 11, 1029-1036).

Structures can show the parent of a compound that is named as a salt.

T1 sequence (P31652 whole entry): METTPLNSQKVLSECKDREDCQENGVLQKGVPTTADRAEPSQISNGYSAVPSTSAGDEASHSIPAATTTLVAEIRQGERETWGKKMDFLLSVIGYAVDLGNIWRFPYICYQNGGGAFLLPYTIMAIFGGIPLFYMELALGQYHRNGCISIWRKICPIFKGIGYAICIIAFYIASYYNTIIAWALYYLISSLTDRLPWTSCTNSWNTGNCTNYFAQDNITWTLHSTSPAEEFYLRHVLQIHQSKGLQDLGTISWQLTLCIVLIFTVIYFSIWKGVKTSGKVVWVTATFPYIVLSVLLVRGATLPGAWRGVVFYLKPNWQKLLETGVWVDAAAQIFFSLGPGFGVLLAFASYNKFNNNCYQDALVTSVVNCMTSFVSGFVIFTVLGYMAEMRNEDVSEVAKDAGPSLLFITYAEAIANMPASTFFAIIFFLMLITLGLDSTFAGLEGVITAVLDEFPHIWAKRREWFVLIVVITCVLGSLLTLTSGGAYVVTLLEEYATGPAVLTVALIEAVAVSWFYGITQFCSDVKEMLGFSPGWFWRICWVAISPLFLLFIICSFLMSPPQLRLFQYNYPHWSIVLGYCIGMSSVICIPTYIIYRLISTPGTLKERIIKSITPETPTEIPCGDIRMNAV

The inhibition is the share of the control response that was lost under treatment. High values mean a response far below the control, low ones a response near the control. Consider `COc1cccc(C2(O)CCC3(CC2CN(C)C)NCCc2c3[nH]c3ccccc23)c1` (stereo not drawn) [Example 1, 1,1-(2-(Dimethylaminomethyl)-3-hydroxy-3-(3-methoxyphenyl)pentamethylene)-3,4-dihydro-1H-2,9-diazafluorene dihydrochloride], for which the inhibition at 10 µM in experiment [1] was 44%; in experiment [2], 43%. Further, the inhibition at 1 µM on human μ-opiate receptor was found to be 40%.
The corresponding values for `CN(C)CC1CC2(CCC1(O)c1ccccc1)OCCc1c2oc2ccccc12` (stereo not drawn) [Example 5, 1,1-(2-(Dimethylaminomethyl)-3-hydroxy-3-phenyl-pentamethylene)-1,3,4,9-tetrahydro-pyrano[3,4-b]benzofuran citrate] are 84%, 51% and 58%.
With `Cc1ccccc1C1(O)CCC2(CC1CN(C)C)OCCc1c2oc2ccccc12` (stereo not drawn) [Example 12, 1,1-(2-(Dimethylaminomethyl)-3-hydroxy-3-(2-methylphenyl)-pentamethylene)-1,3,4,9-tetrahydro-pyrano[3,4-b]benzofuran citrate], the values for the inhibition at 10 µM in experiment [1] and in experiment [2] were 68% and 41%, respectively. The inhibition at 1 µM at human μ-opiate receptor was determined as 56%.
As for `CN(C)CC1CC2(CCC1(O)c1cccc(F)c1)OCCc1c2oc2ccccc12` (stereo not drawn) [Example 8, 1,1-(2-(Dimethylaminomethyl)-3-hydroxy-3-(3-fluorophenyl)-pentamethylene)-1,3,4,9-tetrahydro-pyrano[3,4-b]benzofuran citrate], the values for the inhibition at 10 µM in experiment [1] and in experiment [2] were 88% and 66%, respectively. The compound further had an inhibition at 1 µM on human μ-opiate receptor of 73%.
Turning to `CN(C)CC1CC2(CCC1(O)c1cccc(F)c1)OCCc1c2[nH]c2ccccc12` (stereo not drawn) [Example 27, 1,1-(2-(Dimethylaminomethyl)-3-hydroxy-3-(3-fluorophenyl)-pentamethylene)-1,3,4,9-tetrahydro-pyrano[3,4-b]indole hydrochloride], the inhibition at 10 µM in experiment [1] stood at 83%. Besides, at human μ-opiate receptor, at 1 µM the inhibition was 64%.
Take `CN(C)CC1CC2(CCC1(O)c1ccccc1)NCCc1c2[nH]c2ccccc12` (stereo not drawn) [Example 28, 1,1-(2-(Dimethylaminomethyl)-3-hydroxy-3-phenyl-pentamethylene)-3,4-dihydro-1H-2,9-diazafluorene citrate]: the inhibition at 1 µM on human μ-opiate receptor was 57%.
`CSc1ccc(C2(O)CCC3(CC2CN(C)C)NCCc2c3[nH]c3cc(F)ccc23)cc1` (stereo not drawn) [Example 34, 1,1-(2-(Dimethylaminomethyl)-3-hydroxy-3-(4-methylthiophenyl)-pentamethylene)-7-fluoro-3,4-dihydro-1H-2,9-diazafluorene citrate]: the inhibition at 10 µM in experiment [1] was 65%; in experiment [2], 57%. For the same compound, on human μ-opiate receptor, 1 µM produced 54% inhibition.
On to `COc1cccc(C2(O)CCC3(CC2CN(C)C)c2[nH]c4ccccc4c2CCN3C(C)=O)c1` (stereo not drawn) [Example 2, 1,1-(2-(Dimethylaminomethyl)-3-hydroxy-3-(3-methoxyphenyl)pentamethylene)-2-acetyl-3,4-dihydro-1H-2,9-diazafluorene hydrochloride], for which testing at 1 µM at human μ-opiate receptor gave an inhibition of 65%.
`CN(C)CC1CC2(CCC1(O)c1ccccc1)OCCc1c2[nH]c2ccccc12` (stereo not drawn) [Example 4, 1,1-(2-(Dimethylaminomethyl)-3-hydroxy-3-phenyl-pentamethylene)-1,3,4,9-tetrahydro-pyrano[3,4-b]indole sesquicitrate]: 10 µM produced 84% inhibition in experiment [1]. Also, 1 µM produced 74% inhibition at human μ-opiate receptor.
